Where two headings read alike, the source gives them in different places.

The target of experiment [1] is T1, purified recombinant urease from H. pylori (Helicobacter pylori, UniProt B5Z674).
T1 construct: plasmid pGEM::ureOP, which encodes the entire urease gene cluster, was used to produce recombinant H. pylori urease; made in house; host or cells: E. coli Rosetta2 (DE3) + pGEM::ureOP
Briefly: Inhibition of purified recombinant H. pylori urease (phenol-hypochlorite, Lineweaver-Burk). The following applies: 50 mM phosphate buffer pH 7.5, 37°C, 0.1–2.5 mM urea, competitive reversible inhibition. The format is biochemical. The procedure: The kinetic parameters of urease were determined by measuring the initial rates of the reactions in 50 mM phosphate buffer (pH 7.5) at 37°C. Ammonia was routinely quantified by the phenol hypochlorite method as reported previously.
Inhibition studies were conducted by initiating the enzymatic reaction with the addition of the enzyme into assay mixtures (200 μL total volume) containing increasing concentrations of inhibitors and 0.1–2.5 mM urea. After 15 min of incubation at 37°C, the reaction was stopped by adding phenol-hypochlorite reagents and the absorbance of the formed indophenol blue complexes was measured at 650 nm. The Ki values were determined from Lineweaver-Burk plots after testing at least five inhibitor concentrations in a range that depended on their inhibitory strength. The concentration of inhibitor that caused the loss of 50% of the enzyme’s activity (IC50) was determined from the measurements that were performed at a urea concentration of 0.6 mM and calculated using the linear regression of the urease activity versus the logarithm of the inhibitor concentrations.
The values of Ki and IC50 for all analyzed compounds were calculated using the appropriate equations in GraphPad Prism 5. Errors were reported with two significant digits, and each measured parameter was given with the same number of decimal places as its error [32].

Experiment [2] concerns the target T2, urease in intact H. pylori J99 (Helicobacter pylori, UniProt P69997).
T2 construct: In the intact H. pylori J99 cells, the urease susceptibility profile was similar to that of E. coli (pGEM::ureOP); endogenous in cells
Kind of experiment: Urease inhibition in whole cells of H. pylori J99. The format is cell-based.

Experiment [3] concerns the target T3, urease in intact E. coli (pGEM::ureOP) cells (Helicobacter pylori, UniProt B5Z674).
T3 construct: plasmid pGEM::ureOP, which encodes the entire urease gene cluster, was used to produce recombinant H. pylori urease; expressed in transfected cells; host or cells: E. coli Rosetta2 (DE3) transformed with pGEM::ureOP
Briefly: Urease inhibition in whole cells of E. coli + pGEM::ureOP. The format is cell-based. The following applies: IC50 exceeding 2 mM considered not active. The procedure: The expression strain E. coli + pGEM::ureOP was cultured in 150 mL of LB broth (Biocorp, Poland) with 100 μg/mL ampicillin (Polfa, Tarchomin, Poland) at 37°C and induced with IPTG (0.75 mM) and Ni^2+ (0.75 mM) during the exponential growth phase, which was determined by the OD600 measurements (OD600 = 0.6). Further expression was conducted for 24 h at 22°C. The bacterial culture (1 mL) was harvested via centrifugation (2 min, 20 376 x g, 37°C) and washed three times with PBS. The pellets from 1-mL samples of the expression cell culture were resuspended in 100 μL of PBS. The hydrolysis of urea that is catalyzed by whole bacterial cells was performed in 96-well plates (Rotilabo, U-profile). The reaction progress curves were obtained by the addition of bacterial cells (1×10^9 CFU/mL final concentration) into mixtures (300 μL final volume) that contained 5 mM urea and various inhibitor concentrations that depended on their inhibitory strength. Alternatively, the reaction was initiated via the addition of a concentrated solution of urea after a 120-min preincubation of bacterial cells with the inhibitor. Samples (50 μL) of the reaction mixture were removed after the appropriate reaction time. The enzymatic reactions in the samples were terminated via the introduction of 100 μL of phenol-sodium nitroprusside solution, immediately followed by the addition of 100 μL of NaOH-hypochlorite solution. The absorption of indophenol blue was measured at 650 nm using a TECAN-Sunrise absorbance reader equipped with a gradient filter and Magellan software. The IC50 values were determined from the linear regression of the urease activity versus the logarithm of the inhibitor concentration. The reaction was studied in the absence and in the presence of the inhibitor. The influence of dimethylformamide (DMF), which was used as a solvent for several compounds, was also determined.

[4] abbreviates: cells grown with urea, 2 h of preincubation with inhibitors in PBS under microaerobic conditions, read-out: IC502h PBS.
Setting [5] is: cells grown with urea, 2 h of preincubation with inhibitors in growth medium under microaerobic conditions, read-out: IC502h medium.
Setting [6] is: cells grown with urea, without preincubation, read-out: IC500.
The mark [7] stands for this setting: cells grown without urea, 2 h of preincubation with inhibitors in PBS under microaerobic conditions, read-out: IC502h PBS.
[8] abbreviates: cells grown without urea, without preincubation, read-out: IC500.
Setting [9] is: IC502h PBS, 2 h of preincubation with inhibitors in PBS.
Where [10] appears, read: read-out: IC500, without preincubation of cells with inhibitory compounds, 30-min reactions, 5 mM urea.
Where [11] appears, read: IC500, without preincubation of cells with inhibitory compounds, 30-min reactions, 5 mM urea.
Where [12] appears, read: read-out: IC502h PBS, 2 h of preincubation with inhibitors in PBS.
Where [13] appears, read: without preincubation of cells with inhibitory compounds, 30-min reactions, 5 mM urea.

T1 sequence (B5Z674 whole entry, looked up): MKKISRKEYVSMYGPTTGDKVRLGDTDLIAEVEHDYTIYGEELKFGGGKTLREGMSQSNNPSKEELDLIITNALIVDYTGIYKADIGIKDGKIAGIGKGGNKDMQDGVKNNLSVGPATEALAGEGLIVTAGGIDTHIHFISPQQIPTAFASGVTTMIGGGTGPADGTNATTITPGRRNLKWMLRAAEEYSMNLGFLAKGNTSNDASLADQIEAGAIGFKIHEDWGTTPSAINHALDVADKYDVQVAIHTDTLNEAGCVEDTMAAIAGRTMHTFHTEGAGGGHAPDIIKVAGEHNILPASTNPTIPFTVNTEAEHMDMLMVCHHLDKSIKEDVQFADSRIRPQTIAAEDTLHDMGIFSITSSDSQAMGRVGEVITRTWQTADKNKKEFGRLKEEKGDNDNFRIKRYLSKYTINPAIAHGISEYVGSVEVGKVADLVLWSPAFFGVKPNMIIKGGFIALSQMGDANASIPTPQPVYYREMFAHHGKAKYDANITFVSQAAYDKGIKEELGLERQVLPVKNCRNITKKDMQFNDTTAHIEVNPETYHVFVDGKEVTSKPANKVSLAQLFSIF
T3 sequence (B5Z674 whole entry, looked up): as above
T2 sequence (Q9ZMZ4 whole entry): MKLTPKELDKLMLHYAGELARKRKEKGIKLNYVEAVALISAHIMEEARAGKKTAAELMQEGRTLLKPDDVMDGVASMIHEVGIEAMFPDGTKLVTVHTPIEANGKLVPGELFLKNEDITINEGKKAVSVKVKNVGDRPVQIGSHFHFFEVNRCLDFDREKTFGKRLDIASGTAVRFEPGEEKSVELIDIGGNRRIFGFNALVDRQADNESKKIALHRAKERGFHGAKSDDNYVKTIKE
T2 sequence (P69997 whole entry): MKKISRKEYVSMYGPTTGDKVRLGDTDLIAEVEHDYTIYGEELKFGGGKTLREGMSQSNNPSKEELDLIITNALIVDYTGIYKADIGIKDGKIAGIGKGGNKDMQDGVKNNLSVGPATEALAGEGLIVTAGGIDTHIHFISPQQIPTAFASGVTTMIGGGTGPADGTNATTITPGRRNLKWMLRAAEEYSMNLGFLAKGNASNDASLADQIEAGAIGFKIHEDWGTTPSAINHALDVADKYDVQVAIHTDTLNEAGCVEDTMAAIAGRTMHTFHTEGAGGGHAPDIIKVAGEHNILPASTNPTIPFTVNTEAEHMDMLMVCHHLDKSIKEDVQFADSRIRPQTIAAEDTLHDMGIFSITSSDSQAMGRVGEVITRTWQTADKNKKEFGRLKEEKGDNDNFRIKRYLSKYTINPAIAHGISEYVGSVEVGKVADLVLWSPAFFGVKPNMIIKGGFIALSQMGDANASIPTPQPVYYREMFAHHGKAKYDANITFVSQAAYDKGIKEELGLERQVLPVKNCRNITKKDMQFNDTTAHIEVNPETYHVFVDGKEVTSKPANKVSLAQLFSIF

Turning to `CCCCCCNCP(=O)(O)CO` [Compound 5], the Ki in experiment [1] (Ki) is 74.3 ± 4.7 µM.
On the same count and under the same terms, then `CN(C)CP(=O)(O)CN` [Compound 8], with 29.9 ± 2 µM.
In the case of `CC(C)CNCP(=O)(O)CN` [Compound 10], the IC50 in experiment [2] (setting [4]) was 1130 ± 83 µM; in experiment [2] (setting [5]) it was 835 ± 34 µM; in experiment [2] (setting [6]), over 2000 µM; in experiment [2] (setting [7]) it was 980 ± 35 µM; in experiment [2] (setting [8]) it was 913 ± 63 µM; in experiment [3] (setting [9]) it was 1870 ± 113 µM. Also, the IC50 in experiment [3] (setting [10]) is over 2000 µM. Also, in experiment [1] (Ki), the Ki was determined as 440 ± 70 µM.
As to `CCCCNCP(=O)(O)CN` [Compound 11], the IC50 in experiment [2] (setting [4]) was determined as 816 ± 39 µM; in experiment [2] (setting [5]), 470 ± 38 µM; in experiment [2] (setting [6]) it was 733 ± 9.2 µM; in experiment [2] (setting [7]), 933 ± 206 µM; in experiment [2] (setting [8]), 881 ± 35 µM; in experiment [3] (setting [11]), 779 ± 99 µM. Further, the IC50 in experiment [3] (setting [9]) was 284 ± 41 µM. Also, the Ki in experiment [1] (Ki) is 27 ± 2.1 µM.
On to `CCCCCNCP(=O)(O)CN` [Compound 12], for which the IC50 in experiment [2] (setting [4]) came to 853 ± 93 µM; in experiment [2] (setting [5]) it was 806 ± 72 µM; in experiment [2] (setting [6]) it was 813 ± 61 µM; in experiment [2] (setting [7]), 917 ± 105 µM; in experiment [2] (setting [8]) it was 872 ± 68 µM; in experiment [3] (setting [11]), 1670 ± 232 µM. In addition, in experiment [3] (setting [9]), the IC50 is 475 ± 73 µM. For the same compound, the Ki in experiment [1] (Ki) was 43.1 ± 3.6 µM.
As for `CCCCCCCNCP(=O)(O)CN` [Compound 14], the IC50 in experiment [2] (setting [4]) was 672 ± 52 µM; in experiment [2] (setting [5]) it was 474 ± 34 µM; in experiment [2] (setting [6]), 942 ± 79 µM; in experiment [2] (setting [7]) it was 675 ± 33 µM; in experiment [2] (setting [8]) it was 743 ± 74 µM; in experiment [3] (setting [10]) it was over 2000 µM. Besides, the IC50 in experiment [3] (setting [12]) is over 2000 µM. Further, the inhibition constant Ki in experiment [1] (Ki) amounted to 878 ± 25 µM. Also, the IC500 entry in experiment [3] (setting [13]) is “complete lack of inhibitory effects”.
As for `NCP(=O)(O)CN1CCCCC1` [Compound 16], the IC50 in experiment [2] (setting [4]), in experiment [2] (setting [5]), in experiment [2] (setting [6]), in experiment [2] (setting [7]), in experiment [2] (setting [8]) and in experiment [3] (setting [10]) was over 2000 µM throughout. Also, the IC50 in experiment [3] (setting [12]) is over 2000 µM.
With `NCP(=O)(O)CNC1CCCCC1` [Compound 17], the IC50 in experiment [2] (setting [4]), in experiment [2] (setting [5]), in experiment [2] (setting [6]), in experiment [2] (setting [7]), in experiment [2] (setting [8]) and in experiment [3] (setting [10]) was over 2000 µM each time. Also, in experiment [3] (setting [12]), the IC50 was over 2000 µM.
`NCP(=O)(O)CNCc1ccccc1` [Compound 18]: the IC50 in experiment [2] (setting [4]), in experiment [2] (setting [5]), in experiment [2] (setting [6]), in experiment [2] (setting [7]), in experiment [2] (setting [8]) and in experiment [3] (setting [10]) was over 2000 µM each time. Besides, in experiment [3] (setting [12]), the IC50 was over 2000 µM. Also, the Ki in experiment [1] (Ki) stood at 44.4 ± 2.5 µM. In addition, in experiment [3] (setting [13]), the IC500 result was “complete lack of inhibitory effects”.
`CN(Cc1ccccc1)CP(=O)(O)CN` [Compound 19]: the IC50 in experiment [2] (setting [4]), in experiment [2] (setting [5]), in experiment [2] (setting [6]), in experiment [2] (setting [7]) and in experiment [2] (setting [8]) was over 2000 µM in each case. In addition, the Ki in experiment [1] (Ki) is 36.4 ± 4.9 µM. Further, the IC500 entry in experiment [3] (setting [13]) is given as “complete lack of inhibitory effects”.
With `CCN(CC)CP(=O)(O)CN` [Compound 20], the IC50 in experiment [2] (setting [4]), in experiment [2] (setting [5]), in experiment [2] (setting [6]), in experiment [2] (setting [7]), in experiment [2] (setting [8]) and in experiment [3] (setting [10]) was over 2000 µM in each case. Also, the IC50 in experiment [3] (setting [12]) was over 2000 µM.
As for `CN(C)CP(=O)(O)CN(C)C` [Compound 22], the IC50 in experiment [2] (setting [4]), in experiment [2] (setting [5]), in experiment [2] (setting [6]), in experiment [2] (setting [7]), in experiment [2] (setting [8]) and in experiment [3] (setting [10]) was over 2000 µM in each case. Besides, the IC50 in experiment [3] (setting [12]) is over 2000 µM.
Turning to `O=P(O)(CNCc1ccccc1)CNCc1ccccc1` [Compound 23], the IC50 in experiment [2] (setting [4]), in experiment [2] (setting [5]), in experiment [2] (setting [6]), in experiment [2] (setting [7]) and in experiment [2] (setting [8]) was over 2000 µM in each case. The Ki in experiment [1] (Ki) amounted to 50.7 ± 4.8 µM. In addition, the IC500 entry in experiment [3] (setting [13]) was “complete lack of inhibitory effects”.
For `CC(=O)NO` [Compound 24, acetohydroxamic acid, reference compound], the IC50 in experiment [2] (setting [4]) was 1360 ± 194 µM; in experiment [2] (setting [5]), 192 ± 26 µM; in experiment [2] (setting [6]), 1670 ± 70 µM; in experiment [2] (setting [7]), 156 ± 32 µM; in experiment [2] (setting [8]), over 2000 µM; in experiment [2] (urea-grown cells, preincubation in PBS, read-out: IC502h PBS), 1350 µM. Further, the IC50 turned out to be 1660 µM in experiment [2] (urea-grown cells, without former preincubation, read-out: IC500); 96 ± 17 µM in experiment [3] (2 h of preincubation with inhibitors in PBS, read-out: IC502h PBS); 153 ± 31 µM in experiment [3] (without preincubation of cells with inhibitory compounds, 30-min reactions, 5 mM urea, read-out: IC500). For the same compound, the Ki was determined as 23 µM in experiment [1] (listed as acetohydroxamic acid, read-out: Ki) and 23.2 ± 1.5 µM in experiment [1] (read-out: Ki).

The values are drawn from paper PMC5550016, “Aminophosphinates against Helicobacter pylori ureolysis—Biochemical and whole-cell inhibition characteristics” (PLoS ONE, 2017).
